Source: ChEMBL document CHEMBL1201862, “PubChem BioAssay data set” (2004)
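Test compounds were applied to cells in 96-well plates for 48 hours at 5 doses. GI50 = concentration required for 50% inhibition of growth.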 Activity calls are given as the source filed them. No stated cut-off is given here; in the data, active = GI50 up to about 1.1 µM and inactive = higher.

Tests used:
Assay in all cases: growth of human tumour cells (NCI), 48 h
HL-60 = test system: HL-60
CCRF-CEM = test system: CCRF-CEM
BT-549 = test system: BT-549
M14 = test system: M14
IGROV-1 = test system: IGROV-1
UACC-257 = test system: UACC-257
SK-MEL-5 = test system: SK-MEL-5
NCI/ADR-RES = test system: NCI/ADR-RES
HCC 2998 = test system: HCC 2998
SW-620 = test system: SW-620
TK-10 = test system: TK-10
Malme-3M = test system: Malme-3M
HOP-62 = test system: HOP-62
MDA-N = test system: MDA-N
EKVX = test system: EKVX
SK-OV-3 = test system: SK-OV-3
CAKI-1 = test system: CAKI-1
ACHN = test system: ACHN
COLO 205 = test system: COLO 205
UO-31 = test system: UO-31
SNB-19 = test system: SNB-19
SR = test system: SR
NCI-H460 = test system: NCI-H460
MCF7 = test system: MCF7
MDA-MB-231 = test system: MDA-MB-231
NCI-H522 = test system: NCI-H522
786-0 = test system: 786-0
OVCAR-5 = test system: OVCAR-5
HCT-116 = test system: HCT-116
SF-539 = test system: SF-539
SK-MEL-28 = test system: SK-MEL-28
A549 = test system: A549
SN12C = test system: SN12C
SF-268 = test system: SF-268
HT-29 = test system: HT-29
KM12 = test system: KM12
T47D = test system: T47D
OVCAR-8 = test system: OVCAR-8
HCT-15 = test system: HCT-15
PC-3 = test system: PC-3
RXF 393 = test system: RXF 393
DU-145 = test system: DU-145
Hs-578T = test system: Hs-578T
HOP-92 = test system: HOP-92
MOLT-4 = test system: MOLT-4
MDA-MB-435 = test system: MDA-MB-435
SF-295 = test system: SF-295
SK-MEL-2 = test system: SK-MEL-2
NCI-H23 = test system: NCI-H23
LOX IMVI = test system: LOX IMVI
OVCAR-4 = test system: OVCAR-4
UACC-62 = test system: UACC-62
SNB-75 = test system: SNB-75
A498 = test system: A498
RPMI-8226 = test system: RPMI-8226
NCI-H226 = test system: NCI-H226
U-251 = test system: U-251
OVCAR-3 = test system: OVCAR-3
K562 = test system: K562

Q: How did the GI50 (HL-60) turn out when `CN(Cc1cnc2nc(N)nc(N)c2n1)c1ccc(C(=O)NCCCC(=O)O)cc1` was run?
A: > 100 µM (inactive)

Q: What about the GI50 (CCRF-CEM) of the same compound?
A: 17.3 µM (inactive)

Q: And the GI50 (BT-549)?
A: > 65 µM (inactive)

Q: And the GI50 (M14)?
A: 7.55 µM (inactive)

Q: What about the GI50 (IGROV-1) of the same compound?
A: 16.1 µM (inactive)

Q: And the GI50 (UACC-257)?
A: 98.9 µM (inactive)

Q: What about the GI50 (SK-MEL-5) of the same compound?
A: 49.2 µM (inactive)

Q: What about the GI50 (NCI/ADR-RES) of the same compound?
A: > 31.4 µM (inactive)

Q: And the GI50 (HCC 2998)?
A: > 100 µM (inactive)

Q: What about the GI50 (SW-620) of the same compound?
A: 5.7 µM (inactive)

Q: What about the GI50 (TK-10) of the same compound?
A: > 69 µM (inactive)

Q: What about the GI50 (Malme-3M) of the same compound?
A: 95.9 µM (inactive)

Q: And the GI50 (HOP-62)?
A: 58.6 µM (inactive)

Q: What about the GI50 (MDA-N) of the same compound?
A: 7.57 µM (inactive)

Q: What about the GI50 (EKVX) of the same compound?
A: > 29 µM (inactive)

Q: And the GI50 (SK-OV-3)?
A: 97.9 µM (inactive)

Q: And the GI50 (CAKI-1)?
A: > 27.5 µM (inactive)

Q: And the GI50 (ACHN)?
A: 6.78 µM (inactive)

Q: And the GI50 (COLO 205)?
A: > 100 µM (inactive)

Q: And the GI50 (UO-31)?
A: 17.5 µM (inactive)

Q: What about the GI50 (SNB-19) of the same compound?
A: > 63.1 µM (inactive)

Q: And the GI50 (SR)?
A: 4.99 µM (inactive)

Q: What about the GI50 (NCI-H460) of the same compound?
A: 7.24 µM (inactive)

Q: And the GI50 (MCF7)?
A: 5.02 µM (inactive)

Q: What about the GI50 (MDA-MB-231) of the same compound?
A: > 100 µM (inactive)

Q: And the GI50 (NCI-H522)?
A: 16.2 µM (inactive)

Q: And the GI50 (786-0)?
A: 12.5 µM (inactive)

Q: What about the GI50 (OVCAR-5) of the same compound?
A: > 100 µM (inactive)

Q: And the GI50 (HCT-116)?
A: 3.39 µM (inactive)

Q: What about the GI50 (SF-539) of the same compound?
A: 8.75 µM (inactive)

Q: And the GI50 (SK-MEL-28)?
A: > 100 µM (inactive)

Q: And the GI50 (A549)?
A: 5.83 µM (inactive)

Q: And the GI50 (SN12C)?
A: > 100 µM (inactive)

Q: What about the GI50 (SF-268) of the same compound?
A: 29.9 µM (inactive)

Q: What about the GI50 (HT-29) of the same compound?
A: > 100 µM (inactive)

Q: What about the GI50 (KM12) of the same compound?
A: 8.38 µM (inactive)

Q: And the GI50 (T47D)?
A: > 100 µM (inactive)

Q: And the GI50 (OVCAR-8)?
A: 7.55 µM (inactive)

Q: What about the GI50 (HCT-15) of the same compound?
A: 6.01 µM

Q: What about the GI50 (PC-3) of the same compound?
A: 0.773 µM (active)

Q: What about the GI50 (RXF 393) of the same compound?
A: > 100 µM (inactive)

Q: What about the GI50 (DU-145) of the same compound?
A: 8.49 µM (inactive)

Q: What about the GI50 (Hs-578T) of the same compound?
A: > 92.3 µM (inactive)

Q: What about the GI50 (HOP-92) of the same compound?
A: > 100 µM (inactive)

Q: And the GI50 (MOLT-4)?
A: 6.53 µM (inactive)

Q: And the GI50 (MDA-MB-435)?
A: > 25.4 µM (inactive)

Q: And the GI50 (SF-295)?
A: 12.3 µM (inactive)

Q: And the GI50 (SK-MEL-2)?
A: > 100 µM (inactive)

Q: And the GI50 (NCI-H23)?
A: 37.3 µM (inactive)

Q: And the GI50 (LOX IMVI)?
A: 4 µM (inactive)

Q: What about the GI50 (OVCAR-4) of the same compound?
A: > 100 µM (inactive)

Q: What about the GI50 (UACC-62) of the same compound?
A: 12.6 µM (inactive)

Q: And the GI50 (SNB-75)?
A: > 62.7 µM (inactive)

Q: What about the GI50 (A498) of the same compound?
A: > 100 µM (inactive)

Q: And the GI50 (RPMI-8226)?
A: > 40 µM (inactive)

Q: And the GI50 (NCI-H226)?
A: > 37.5 µM (inactive)

Q: What about the GI50 (U-251) of the same compound?
A: 77.3 µM (inactive)

Q: What about the GI50 (OVCAR-3) of the same compound?
A: > 93.5 µM (inactive)

Q: And the GI50 (K562)?
A: 1.2 µM (inactive)

Q: Which results are given for `O=C(O)c1ccc(C(=O)O)c(C(=O)Nc2ccc3c(c2)C(=O)c2ccccc2-3)c1`?
A: GI50 (HL-60): 55.6 µM (inactive); GI50 (CCRF-CEM): 48 µM (inactive); GI50 (BT-549): > 100 µM (inactive); GI50 (M14): > 100 µM (inactive); GI50 (IGROV-1): > 100 µM (inactive); GI50 (UACC-257): > 100 µM (inactive); GI50 (SK-MEL-5): > 100 µM (inactive); GI50 (NCI/ADR-RES): > 100 µM (inactive); GI50 (HCC 2998): > 100 µM (inactive); GI50 (SW-620): > 100 µM (inactive); GI50 (TK-10): > 100 µM (inactive); GI50 (Malme-3M): > 100 µM (inactive); GI50 (HOP-62): > 100 µM (inactive); GI50 (MDA-N): > 100 µM (inactive); GI50 (EKVX): > 100 µM (inactive); GI50 (SK-OV-3): > 100 µM (inactive); GI50 (CAKI-1): > 100 µM (inactive); GI50 (ACHN): > 100 µM (inactive); GI50 (COLO 205): > 100 µM (inactive); GI50 (UO-31): > 100 µM (inactive); GI50 (SNB-19): > 100 µM (inactive); GI50 (SR): > 100 µM (inactive); GI50 (NCI-H460): > 100 µM (inactive); GI50 (MCF7): > 100 µM (inactive); GI50 (MDA-MB-231): > 100 µM (inactive); GI50 (NCI-H522): > 100 µM (inactive); GI50 (786-0): > 100 µM (inactive); GI50 (OVCAR-5): > 100 µM (inactive); GI50 (HCT-116): > 100 µM (inactive); GI50 (SF-539): > 100 µM (inactive); GI50 (SK-MEL-28): > 100 µM (inactive); GI50 (A549): > 100 µM (inactive); GI50 (SN12C): > 100 µM (inactive); GI50 (SF-268): > 100 µM (inactive); GI50 (HT-29): > 100 µM (inactive); GI50 (KM12): > 100 µM (inactive); GI50 (T47D): > 100 µM (inactive); GI50 (OVCAR-8): > 100 µM (inactive); GI50 (HCT-15): > 100 µM; GI50 (PC-3): > 100 µM (inactive); GI50 (RXF 393): > 100 µM (inactive); GI50 (DU-145): > 100 µM (inactive); GI50 (Hs-578T): > 100 µM (inactive); GI50 (HOP-92): > 100 µM (inactive); GI50 (MOLT-4): > 100 µM (inactive); GI50 (MDA-MB-435): > 100 µM (inactive); GI50 (SF-295): > 100 µM (inactive); GI50 (SK-MEL-2): > 100 µM (inactive); GI50 (NCI-H23): > 100 µM (inactive); GI50 (LOX IMVI): > 100 µM (inactive); GI50 (OVCAR-4): > 100 µM (inactive); GI50 (UACC-62): > 100 µM (inactive); GI50 (SNB-75): > 100 µM (inactive); GI50 (A498): > 100 µM (inactive); GI50 (RPMI-8226): > 100 µM (inactive); GI50 (NCI-H226): > 100 µM (inactive); GI50 (U-251): > 100 µM (inactive); GI50 (OVCAR-3): > 100 µM (inactive); GI50 (K562): > 100 µM (inactive)
